Source: US9505824B2, “Antigen peptide derived from the sequence of epidermal growth factor receptor having T790M point mutation” (Kanagawa Prefectural Hospital Organization, priority 2012, dated 2016)

Tests used:
HLA-A2 molecule [1] = experiment: HLA class I stabilization assay with TAP2-deficient RMA-S/A2 cells; format: binding; settings: peptide 10 μg/ml
[2] = test system: PBMCs from HLA-A2+ healthy donors; experiment: Immunogenicity in PBMCs of HLA-A2+ healthy donors, IFN-γ ELISPOT against peptide-pulsed T2 cells; format: cell-based, human; settings: PBMCs from 6 HLA-A2+ healthy donors, repeated stimulation with peptide 10 μg/ml
Source text: FIG. 1. Immunogenicity of T790M-5 and T790M-7 peptides in peripheral blood mononuclear cells (PBMCs) from normal donors. Immunogenicity of T790M-5 and T790M-7 peptides was examined with PBMCs from 6 different HLA-A2^+ healthy donors.

HLA-A2 molecule [3] = target: T1, HLA-A2 molecule (Homo sapiens, UniProt P04439, D140Y/D185E/D98H/E176V/E277Q/G131W/G231S/I119V/I121R/I166T/I218V/L300P/L318F/N151K/N90K/P208A/P217A/Q86G/Q94H/R138H/R169H/T345S); experiment: HLA class I stabilization assay with TAP2-deficient T2 cells; format: binding; settings: T2 cells expressing HLA-A2
T1 construct: TAP2-deficient T2 cells expressing HLA-A2; host or cells: T2 cells (TAP2-deficient, HLA-A2+)
Description: FIG. 6. HLA-A2-binding capability of EGFR-T790M-derived peptides. The binding of selected peptides to an HLA-A2 molecule was evaluated by HLA class I stabilization assay with TAP2-deficient T2 cells expressing HLA-A2.
The binding of predicted peptides to an HLA-A2 molecule was evaluated by HLA class I stabilization assay with TAP2-deficient T2 cells (HLA-A2+) (RIKEN, Saitama, Japan). After overnight culture in RPMI 1640 medium at 26° C., T2 cells were cultured for 3 hours at 26° C. in the presence of each synthetic peptide. The cells were cultured for 2.5 hours at 37° C., and then stained with anti-HLA-A2 antibody (BB7.2) (MBL, Nagoya, Japan), followed by analysis with flow cytometry. The binding capability of each peptide to the HLA-A2 molecule was evaluated by comparing the mean fluorescence intensity (MFI) of HLA-A2 expression of the peptide with those of the positive and the negative controls. The HLA-A2-restricted HIV peptide and CMV peptide were used as positive controls, and H-2K^b-restricted OVA peptide was used as a negative control.

| Sequence | HLA binding capability (%) (MFI increase of HLA-A2 expression) (HLA-A2 molecule [1]) | healthy donors in whom T cell lines secreting IFN-γ in response to the peptide were established [2] | binding to HLA-A2 (in words) (HLA-A2 molecule [3]) |
| --- | --- | --- | --- |
| VQLIMQLMPF [Peptide T790M-1] | 0% |  |  |
| LTSTVQLIMQL [Peptide T790M-6] | 0% |  |  |
| IMQLMPFGCLL [Peptide T790M-8] | 69.3% | none of the 6 healthy donors |  |
| IMQLMPFGV [Peptide T790M-D] |  |  | higher binding |
| QLIMQLMPFG [Peptide T790M-2] | 0% |  |  |
| IMQLMPFGCL [Peptide T790M-4] | 0% |  |  |
| IMQLMPFGL [Peptide T790M-E] |  |  | higher binding |
| LIMQLMPFGC [Peptide T790M-3] | 0% |  | confirmed to bind to HLA-A2 |
